Reference: PubChem BioAssay AID2060497 (Molecular Pharmacology Branch, DTP, NCI, 2025)

System: 317291-083-R-J1-PDC complex spheroids, viability
Assay: Anticancer human tumor 317291-083-R-J1-PDC patient-derived soft tissue sarcoma cell line growth inhibition [GQUAD]
Settings: for IC50: curve of first compound; for viability, T/C: stronger effect = lower value
Excerpt: DNA G-quadruplex Stabilizer Agents in Combinations in Complex Spheroids
A high-throughput screen of multi-cell type tumor spheroids was designed to identify active combinations of DNA G-quadruplex stabilizer agents and targeted small molecules. Complex spheroids include a stromal component modeled by human endothelial cells (HUVEC) and fibroblasts modeled by human mesenchymal stem cells (MSCs). The concentration ranges selected for each drug and investigational agent were based upon clinically achievable concentrations if the clinical Cmax of the agent was known.
Compounds. The drugs and investigational agents: pidnarulex (CX-5461; NSC782164), APTO-253 (NSC789042), BRACO-19 (NSC847499), peposertib (NSC802822), ceralasertib (NSC780249), elimusertib (NSC800525), camonsertib (NSC841442), AZD-1390 (NSC803789), olaparib (NSC753686), talazoparib (NSC767125), ART-558 (NSC835418), sotorasib (NSC818433), MRTX-1133 (NSC836407), SN-38 (NSC673596), topotecan (NSC609699), etoposide (NSC141540), doxorubicin (NSC123127), gemcitabine (NSC613327), 5-fluorouracil (NSC19893), paclitaxel (NSC125973), vemurafenib (NSC761431), panobinostat (NSC761190), R-306465 (JNJ-16241199; NSC773264), adavosertib (NSC754352), TP-3654 (NSC805149), carboplatin (NSC241240), KSQ-4279 (NSC840948), and staurosporine (NSC755774) were obtained from the National Cancer Institute (NCI) Developmental Therapeutics Program Chemical Repository (34). The FDA-approved anticancer drug set is available from the NCI Developmental Therapeutics Program. […] The stock solutions were prepared in dimethyl sulfoxide (DMSO, Sigma-Aldrich, St. Louis, MO, cat. D2650) at 800-fold the tested concentration and stored at -70 degrees C prior to their use. All drugs and investigational agents were tested over a range starting from a high concentration at or near the clinical Cmax and decreasing in half-log increments. If the clinical Cmax for an agent had not been determined, the highest concentration tested was 10 microM.
2.3 Cell Culture. All cells were maintained in an incubator at 37 degrees C and 5% CO2 with 95% humidity. The PDC lines were cultured according to standard operating procedures established by the NCI PDMR. All PDCs were thawed and cultured in Matrigel-coated flasks prepared with a working solution of 1X Ham's F-12 nutrient mix, without supplementation (Invitrogen, cat. 11765054), 100 U/mL penicillin-streptomycin (Invitrogen, cat. 15140122), and 2.5% Matrigel (Corning Inc., cat. 354248) for the first three passages. The 857933-349-R-J2-PDC line was cultured in 6C/Colon 1B media, which includes advanced DMEM/F-12 (Thermo Fisher Scientific, cat. 12634028), 10 mM HEPES (Thermo Fisher Scientific, cat. 15630080), 1X GlutaMAX supplement (Thermo Fisher Scientific, cat. 35050061), 0.1 mg/mL primocin (InvivoGen, cat. ant-pm-2), 10% defined fetal bovine serum, heat inactivated (HyClone Laboratories Inc., cat. SH30070.03HI), 50% L-WRN conditioned media (ATCC, cat. CRL-3276), 1.25 mM N-Acetyl-L-cysteine (Sigma-Aldrich, cat. A9165), 10 mM nicotinamide (Sigma-Aldrich, cat. N0636), 1X B-27 supplement (Thermo Fisher Scientific, cat. 17504044), 1X N-2 supplement (Thermo Fisher Scientific, cat. 17502048), 10 microM Y-27632 dihydrochloride (Tocris Bioscience, cat. 1254), and 50 ng/mL human EGF recombinant protein (Thermo Fisher Scientific, cat. PHG0311). The 485176-168-R4-J1-PDC line was cultured in Panc media, which includes all 6C/Colon 1B media components plus 100 ng/mL human FGF-10 (Thermo Fisher Scientific, cat. 100-26), 500 nM SB-431542 (Selleckchem, cat. S1067), and gastrin (Tocris, cat. 3006).
[…]
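Further: spheroids exposed to compounds for one week before readout.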
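Wherever viability, T/C is given: percent viability relative to DMSO vehicle wells taken as 100%.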

Question: For `Cn1ncnc1[C@H]1c2n[nH]c(=O)c3cc(F)cc(c23)N[C@@H]1c1ccc(F)cc1` + CN(C)c1ccc(Nc2c3ccc(NC(=O)CCN4CCCC4)cc3nc3cc(NC(=O)CCN4CCCC4)ccc23)cc1, which IC50 (second compound 0.0316 µM) is on record?
Answer: Its IC50 is greater than 316 nM.

Question: What about the IC50 (second compound 0.1 µM) of the same molecule?
Answer: The IC50 was greater than 316 nM.

Question: And the IC50 (second compound 0.316 µM)?
Answer: The IC50 was 205 nM.

Question: And the IC50 (second compound 1 µM)?
Answer: Its IC50 is 14.9 nM.

Question: And the IC50 (second compound 3.16 µM)?
Answer: The IC50 was less than 0.999 nM.

Question: And the IC50 (second compound 10 µM)?
Answer: Its IC50 is less than 0.999 nM.

Question: What about the viability, T/C (second compound 0.0316 µM, first compound 0.000999 µM) of the same molecule?
Answer: Its viability, T/C is 112%.

Question: What about the viability, T/C (second compound 0.0316 µM, first compound 0.00316 µM) of the same molecule?
Answer: The viability, T/C was 94%.

Question: And the viability, T/C (second compound 0.0316 µM, first compound 0.00999 µM)?
Answer: The viability, T/C was 85%.

Question: And the viability, T/C (second compound 0.0316 µM, first compound 0.0316 µM)?
Answer: Its viability, T/C is 74.7%.

Question: And the viability, T/C (second compound 0.0316 µM, first compound 0.0999 µM)?
Answer: The viability, T/C was 67.4%.

Question: And the viability, T/C (second compound 0.0316 µM, first compound 0.316 µM)?
Answer: Its viability, T/C is 66.6%.

Question: And the viability, T/C (second compound 0.1 µM, first compound 0.000999 µM)?
Answer: The viability, T/C was 115%.

Question: And the viability, T/C (second compound 0.1 µM, first compound 0.00316 µM)?
Answer: The viability, T/C was 87.6%.

Question: And the viability, T/C (second compound 0.1 µM, first compound 0.00999 µM)?
Answer: Its viability, T/C is 90.3%.

Question: What about the viability, T/C (second compound 0.1 µM, first compound 0.0316 µM) of the same molecule?
Answer: Its viability, T/C is 87.6%.

Question: What about the viability, T/C (second compound 0.1 µM, first compound 0.0999 µM) of the same molecule?
Answer: Its viability, T/C is 81.9%.

Question: And the viability, T/C (second compound 0.1 µM, first compound 0.316 µM)?
Answer: Its viability, T/C is 65.3%.

Question: What about the viability, T/C (second compound 0.316 µM, first compound 0.000999 µM) of the same molecule?
Answer: Its viability, T/C is 68.9%.

Question: What about the viability, T/C (second compound 0.316 µM, first compound 0.00316 µM) of the same molecule?
Answer: Its viability, T/C is 79.3%.

Question: What about the viability, T/C (second compound 0.316 µM, first compound 0.00999 µM) of the same molecule?
Answer: The viability, T/C was 72.8%.

Question: And the viability, T/C (second compound 0.316 µM, first compound 0.0316 µM)?
Answer: Its viability, T/C is 61.9%.

Question: And the viability, T/C (second compound 0.316 µM, first compound 0.0999 µM)?
Answer: Its viability, T/C is 60.5%.

Question: And the viability, T/C (second compound 0.316 µM, first compound 0.316 µM)?
Answer: Its viability, T/C is 44.6%.

Question: What about the viability, T/C (second compound 1 µM, first compound 0.000999 µM) of the same molecule?
Answer: Its viability, T/C is 54.3%.

Question: What about the viability, T/C (second compound 1 µM, first compound 0.00316 µM) of the same molecule?
Answer: Its viability, T/C is 49.3%.

Question: And the viability, T/C (second compound 1 µM, first compound 0.00999 µM)?
Answer: The viability, T/C was 62.1%.

Question: And the viability, T/C (second compound 1 µM, first compound 0.0316 µM)?
Answer: Its viability, T/C is 34.1%.

Question: What about the viability, T/C (second compound 1 µM, first compound 0.0999 µM) of the same molecule?
Answer: Its viability, T/C is 38.2%.

Question: What about the viability, T/C (second compound 1 µM, first compound 0.316 µM) of the same molecule?
Answer: The viability, T/C was 47.9%.

Question: And the viability, T/C (second compound 3.16 µM, first compound 0.000999 µM)?
Answer: The viability, T/C was 35.7%.

Question: And the viability, T/C (second compound 3.16 µM, first compound 0.00316 µM)?
Answer: The viability, T/C was 24%.

Question: What about the viability, T/C (second compound 3.16 µM, first compound 0.00999 µM) of the same molecule?
Answer: The viability, T/C was 24.9%.

Question: And the viability, T/C (second compound 3.16 µM, first compound 0.0316 µM)?
Answer: The viability, T/C was 18.5%.

Question: And the viability, T/C (second compound 3.16 µM, first compound 0.0999 µM)?
Answer: Its viability, T/C is 28.6%.

Question: And the viability, T/C (second compound 3.16 µM, first compound 0.316 µM)?
Answer: The viability, T/C was 17.7%.

Question: What about the viability, T/C (second compound 10 µM, first compound 0.000999 µM) of the same molecule?
Answer: Its viability, T/C is 9.05%.

Question: And the viability, T/C (second compound 10 µM, first compound 0.00316 µM)?
Answer: The viability, T/C was 13.8%.

Question: And the viability, T/C (second compound 10 µM, first compound 0.00999 µM)?
Answer: The viability, T/C was 8.55%.

Question: And the viability, T/C (second compound 10 µM, first compound 0.0316 µM)?
Answer: Its viability, T/C is 12.2%.

Question: And the viability, T/C (second compound 10 µM, first compound 0.0999 µM)?
Answer: Its viability, T/C is 5.71%.

Question: And the viability, T/C (second compound 10 µM, first compound 0.316 µM)?
Answer: The viability, T/C was 8.04%.
